Test results: paper PMC6923176, “High-Throughput Screening of a 2-Keto-L-Gulonic Acid-Producing Gluconobacter oxydans Strain Based on Related Dehydrogenases” (Frontiers in Bioengineering and Biotechnology, 2019)

How the values were obtained:
Test in all cases: NADH consumption, A340
Type in all cases: biochemical
Details in all cases: NAD(P)H-dependent reduction; co-substrate, pH and temperature of the Km series not given (unit definition: NADH, pH 7.0, 37 C)
[1] = molecular target: T1, CFR-2KR (2-KLG reductase, 2kr) (Citrobacter freundii, UniProt A0A0P8I5D5)
T1 construct: gene ghrB; full length, His-tagged from pET28a(+), EcoRI/SalI, E. coli BL21(DE3), Ni-NTA
T1 sequence (A0A0P8I5D5 1-324): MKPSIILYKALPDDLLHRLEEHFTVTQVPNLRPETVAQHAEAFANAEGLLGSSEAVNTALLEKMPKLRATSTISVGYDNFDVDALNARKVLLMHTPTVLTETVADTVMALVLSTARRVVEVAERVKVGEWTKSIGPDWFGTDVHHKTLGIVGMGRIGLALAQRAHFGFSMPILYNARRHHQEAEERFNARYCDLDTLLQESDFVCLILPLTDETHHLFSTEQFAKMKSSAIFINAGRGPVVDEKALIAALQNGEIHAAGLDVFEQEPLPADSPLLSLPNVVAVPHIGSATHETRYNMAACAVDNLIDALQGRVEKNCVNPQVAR

[2] = molecular target: T2, ANI-2KR (2-KLG reductase, 2kr) (Aspergillus niger, UniProt A2Q988)
T2 construct: gene An01g07030; full length, synthetic gene without stop codon, BamHI/SalI in pET28a(+), His-tagged, E. coli BL21(DE3), Ni-NTA
T2 sequence (A2Q988 1-339): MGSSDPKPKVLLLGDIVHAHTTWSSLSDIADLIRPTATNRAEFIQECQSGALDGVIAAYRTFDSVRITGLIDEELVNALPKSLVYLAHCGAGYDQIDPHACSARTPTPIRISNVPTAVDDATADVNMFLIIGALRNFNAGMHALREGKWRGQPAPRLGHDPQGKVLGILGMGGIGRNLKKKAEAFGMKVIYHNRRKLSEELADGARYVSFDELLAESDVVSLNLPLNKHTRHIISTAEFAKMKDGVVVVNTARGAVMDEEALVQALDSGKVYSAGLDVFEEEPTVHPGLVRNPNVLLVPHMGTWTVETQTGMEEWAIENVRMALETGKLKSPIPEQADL

[3] = molecular target: T3, ANI-GLUD (2-KLG reductase, GLUD) (Aspergillus niger, UniProt A0A1D8RK43)
T3 construct: full length, synthetic gene without stop codon, BamHI/SalI in pET28a(+), His-tagged, E. coli BL21(DE3), Ni-NTA
T3 sequence (A0A1D8RK43 1-331): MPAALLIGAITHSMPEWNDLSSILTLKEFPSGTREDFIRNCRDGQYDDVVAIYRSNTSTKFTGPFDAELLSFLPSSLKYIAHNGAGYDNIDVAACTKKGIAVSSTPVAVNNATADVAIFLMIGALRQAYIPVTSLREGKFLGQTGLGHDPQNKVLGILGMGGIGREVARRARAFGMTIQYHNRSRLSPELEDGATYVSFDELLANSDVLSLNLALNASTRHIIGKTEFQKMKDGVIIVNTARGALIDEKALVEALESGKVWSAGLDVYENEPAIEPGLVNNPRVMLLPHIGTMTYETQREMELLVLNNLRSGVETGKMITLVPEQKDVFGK

Measured: Km

O=C(O)C(=O)[C@@H](O)[C@H](O)[C@@H](O)CO [2-KLG, 2-keto-L-gulonic acid]
Km and Vmax values for 2-KLG reductases: all assays above
